The test system of this assay is L1210 leukemia ip in BDF1 mice, survival T/C. Put plainly: NCI In Vivo Anticancer Drug Screen. Data for tumor model L1210 Leukemia (intraperitoneal) in B6D2F1 (BDF1) mice. The note with it: endpoint: mean survival time, higher = longer survival. In a few lines:
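Mice bearing the transplanted tumor received compound or vehicle. Survival of the treated group was divided by that of the vehicle-treated control group to give the ratio.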

Where [1] appears, read: dose: 100.0 mg/kg/injection, schedule: Q01DX001 (ip), vehicle: carboxymethylcellulose (CMC).
Setting [2] is: dose: 200.0 mg/kg/injection, schedule: Q01DX001 (ip), vehicle: carboxymethylcellulose (CMC).
Setting [3] is: dose: 400.0 mg/kg/injection, schedule: Q01DX001 (ip), vehicle: carboxymethylcellulose (CMC).
Where [4] appears, read: dose: 100.0 mg/kg/injection, schedule: Q01DX001 (ip), vehicle: saline.
[5] abbreviates: dose: 100.0 mg/kg/injection, schedule: Q04DX003 (ip), vehicle: saline.
Setting [6] is: dose: 200.0 mg/kg/injection, schedule: Q04DX003 (ip), vehicle: saline.
[7] abbreviates: dose: 200.0 mg/kg/injection, schedule: Q01DX001 (ip), vehicle: saline.
[8] abbreviates: dose: 100.0 mg/kg/injection, schedule: Q01DX001 (ip), vehicle: Klucel (hydroxypropylcellulose) (HPC).
Setting [9] is: dose: 100.0 mg/kg/injection, schedule: Q04DX003 (ip), vehicle: saline with Tween-80.
Where [10] appears, read: dose: 200.0 mg/kg/injection, schedule: Q04DX003 (ip), vehicle: saline with Tween-80.
Setting [11] is: dose: 400.0 mg/kg/injection, schedule: Q04DX003 (ip), vehicle: saline with Tween-80.

Inconclusive results and toxic doses are left out.

For `O=[N+]([O-])c1ccc(N/N=C(\Cc2ccccc2)CC(O)(C(F)(F)F)C(F)(F)F)c([N+](=O)[O-])c1`, the T/C by setting is: (dose: 25.0 mg/kg/injection, schedule: Q01DX009 (ip), vehicle: gum acacia) 92 % of control; (dose: 50.0 mg/kg/injection, schedule: Q01DX009 (ip), vehicle: gum acacia) 96 % of control; (dose: 100.0 mg/kg/injection, schedule: Q01DX001 (ip), vehicle: gum acacia) 106 % of control; (dose: 100.0 mg/kg/injection, schedule: Q01DX009 (ip), vehicle: gum acacia) 98 % of control; (dose: 200.0 mg/kg/injection, schedule: Q01DX001 (ip), vehicle: gum acacia) 100 % of control; (dose: 200.0 mg/kg/injection, schedule: Q01DX009 (ip), vehicle: gum acacia) 94 % of control. For the same compound, the T/C was 98 % of control (dose: 400.0 mg/kg/injection, schedule: Q01DX001 (ip), vehicle: gum acacia) and 93 % of control (dose: 400.0 mg/kg/injection, schedule: Q01DX009 (ip), vehicle: gum acacia).

Take `Cc1cn(C2CC(O)C(CN)O2)c(=O)[nH]c1=O` (configuration not stated): the T/C (dose: 100.0 mg/kg/injection, schedule: Q01DX005 (ip), vehicle: saline) was 96 % of control and the T/C (dose: 200.0 mg/kg/injection, schedule: Q01DX005 (ip), vehicle: saline) is 104 % of control.

On to `CNC1CCCCC1`, for which the T/C is, setting by setting: (dose: 50.0 mg/kg/injection, schedule: Q01DX001 (ip), vehicle: carboxymethylcellulose (CMC)) 96 % of control; under setting [1], 102 % of control; under setting [2], 106 % of control; under setting [3], 112 % of control.

Turning to `CC1(C)N=C(N)N=C(N)N1c1ccc(OCCCCNC(=O)Nc2cccc(S(=O)(=O)F)c2)c(Cl)c1`, the T/C reads like this: (dose: 25.0 mg/kg/injection, schedule: Q01DX009 (ip), vehicle: saline with Tween-80) 100 % of control; (dose: 50.0 mg/kg/injection, schedule: Q01DX009 (ip), vehicle: saline with Tween-80) 108 % of control; (dose: 100.0 mg/kg/injection, schedule: Q01DX009 (ip), vehicle: saline with Tween-80) 116 % of control.

For the compound `COC(=O)C1=C(O)CN(C)C1=O`, the T/C runs as follows: (dose: 12.5 mg/kg/injection, schedule: Q01DX001 (ip), vehicle: saline) 98 % of control; (dose: 25.0 mg/kg/injection, schedule: Q01DX001 (ip), vehicle: saline) 93 % of control; (dose: 25.0 mg/kg/injection, schedule: Q01DX009 (ip), vehicle: saline) 101 % of control; (dose: 50.0 mg/kg/injection, schedule: Q01DX001 (ip), vehicle: saline) 91 % of control; (dose: 50.0 mg/kg/injection, schedule: Q01DX009 (ip), vehicle: saline) 103 % of control; under setting [4], 86 % of control. For the same compound, the T/C runs as follows: (dose: 100.0 mg/kg/injection, schedule: Q01DX009 (ip), vehicle: saline) 96 % of control; (dose: 150.0 mg/kg/injection, schedule: Q01DX009 (ip), vehicle: saline) 94 % of control.

As for `O=Cc1cccn1-c1ccc2ncccc2c1[N+](=O)[O-]`, the T/C by setting is: (dose: 50.0 mg/kg/injection, schedule: Q04DX002 (ip), vehicle: Klucel (hydroxypropylcellulose) (HPC)) 90 % of control; (dose: 100.0 mg/kg/injection, schedule: Q04DX002 (ip), vehicle: Klucel (hydroxypropylcellulose) (HPC)) 111 % of control; (dose: 200.0 mg/kg/injection, schedule: Q04DX002 (ip), vehicle: Klucel (hydroxypropylcellulose) (HPC)) 93 % of control.

Take `OCC(O)c1ccccn1` (configuration not stated): the T/C runs as follows: under setting [5], 107 % of control; under setting [6], 94 % of control; (dose: 400.0 mg/kg/injection, schedule: Q04DX003 (ip), vehicle: saline) 94 % of control.

`CCCCCCCC1CCC(=O)O1` (configuration not stated): the T/C (dose: 50.0 mg/kg/injection, schedule: Q04DX003 (ip), vehicle: saline) was 103 % of control; the T/C under setting [4] was 95 % of control; the T/C under setting [5] was 105 % of control; the T/C under setting [7] was 98 % of control; the T/C under setting [6] is 97 % of control; the T/C (dose: 400.0 mg/kg/injection, schedule: Q01DX001 (ip), vehicle: saline) was 100 % of control.

`C=CCCc1c(N)nc(N)[nH]c1=O`: the T/C is 100 % of control (dose: 25.0 mg/kg/injection, schedule: Q01DX001 (ip), vehicle: Klucel (hydroxypropylcellulose) (HPC)); 100 % of control (dose: 50.0 mg/kg/injection, schedule: Q01DX001 (ip), vehicle: Klucel (hydroxypropylcellulose) (HPC)); 96 % of control under setting [8].

In the case of `Clc1ccc2c(n1)Sc1c(Cl)nc(Cl)nc1N2`, the T/C under setting [8] is 95 % of control; the T/C (dose: 200.0 mg/kg/injection, schedule: Q01DX001 (ip), vehicle: Klucel (hydroxypropylcellulose) (HPC)) is 108 % of control; the T/C (dose: 400.0 mg/kg/injection, schedule: Q01DX001 (ip), vehicle: Klucel (hydroxypropylcellulose) (HPC)) was 93 % of control.

For the compound `O=c1c2ccccc2[nH]c2ccc(-n3nnc4ccccc4c3=O)cc12`, the T/C runs as follows: (dose: 6.0 mg/kg/injection, schedule: Q04DX003 (ip), vehicle: saline) 103 % of control; (dose: 12.0 mg/kg/injection, schedule: Q04DX003 (ip), vehicle: saline) 89 % of control; (dose: 25.0 mg/kg/injection, schedule: Q04DX003 (ip), vehicle: saline) 94 % of control.

For `C/C=C/C1OCCO1`, the T/C (dose: 100.0 mg/kg/injection, schedule: Q01DX009 (ip), vehicle: acetone) was 92 % of control.

Turning to `O=CN(O)CC(=O)O.[Ni]`, the T/C (dose: 6.25 mg/kg/injection, schedule: Q01DX009 (ip), vehicle: saline) is 105 % of control and the T/C (dose: 12.5 mg/kg/injection, schedule: Q01DX009 (ip), vehicle: saline) was 109 % of control.

As to `CCCOP(=O)(OCCC)C(OC(=O)C(C)(C)SC(=S)CCC)=C(C)C`, the T/C is 97 % of control under setting [9], 100 % of control under setting [10] and 94 % of control under setting [11].

For `Nc1nc(SC2CCCCC2)c2[nH]cnc2n1`, the T/C is, setting by setting: (dose: 60.0 mg/kg/injection, schedule: Q01DX Z (ip), vehicle: carboxymethylcellulose (CMC)) 95 % of control; (dose: 120.0 mg/kg/injection, schedule: Q01DX Z (ip), vehicle: carboxymethylcellulose (CMC)) 104 % of control; (dose: 240.0 mg/kg/injection, schedule: Q01DX Z (ip), vehicle: carboxymethylcellulose (CMC)) 106 % of control; (dose: 480.0 mg/kg/injection, schedule: Q01DX Z (ip), vehicle: carboxymethylcellulose (CMC)) 112 % of control.

For the compound `CC1=CC(=O)C2=C(C)CCC3C(C)C(=O)OC3C12` (configuration not stated), the T/C by setting is: (dose: 200.0 mg/kg/injection, schedule: Q01DX001 (ip), vehicle: saline with Tween-80) 98 % of control; (dose: 400.0 mg/kg/injection, schedule: Q01DX001 (ip), vehicle: saline with Tween-80) 162 % of control.

For the compound `CC(C)(C)OC(=O)N1C2CCC(C2)N1C(=O)OC(C)(C)C`, the T/C is, setting by setting: under setting [1], 100 % of control; under setting [2], 96 % of control; under setting [3], 96 % of control.

On to `CCOC(=O)c1c(N)[nH]c(SSc2[nH]c(N)c(C(=O)OCC)c2C(=O)OCC)c1C(=O)OCC`, for which the T/C is, setting by setting: under setting [9], 99 % of control; under setting [10], 96 % of control; under setting [11], 89 % of control.

With `CCOC(=O)C(Cc1ccc(O)c(N(CCO)CCO)c1)N1C(=O)c2ccccc2C1=O` (configuration not stated), the T/C under setting [4] is 101 % of control and the T/C under setting [7] was 112 % of control.

With `Cc1ccc2c(c1)Sc1ccc3ccccc3c1N2`, the T/C runs as follows: (dose: 100.0 mg/kg/injection, schedule: Q01DX009 (ip), vehicle: saline sonified) 104 % of control; (dose: 100.0 mg/kg/injection, schedule: Q04DX003 (ip), vehicle: Klucel (hydroxypropylcellulose) (HPC)) 97 % of control; (dose: 200.0 mg/kg/injection, schedule: Q01DX009 (ip), vehicle: saline sonified) 88 % of control; (dose: 200.0 mg/kg/injection, schedule: Q04DX003 (ip), vehicle: Klucel (hydroxypropylcellulose) (HPC)) 89 % of control; (dose: 400.0 mg/kg/injection, schedule: Q01DX009 (ip), vehicle: saline sonified) 100 % of control; (dose: 400.0 mg/kg/injection, schedule: Q04DX003 (ip), vehicle: Klucel (hydroxypropylcellulose) (HPC)) 92 % of control.

These data come from PubChem BioAssay AID248 (DTP/NCI, 2004).
